From ChEMBL document CHEMBL1138168, “Imidazo[1,2-a]pyrimidines as functionally selective GABA(A) ligands” (Bioorg Med Chem Lett, 2006)
Active and inactive are the calls of the source. No cut-off for these calls is given here.

Tests used:
[1] = biological target: T1, GABA-A receptor; alpha-1/beta-3/gamma-2 (Homo sapiens, UniProt P14867+P18507+P28472); assay: Displacement of [3H]Ro 15-1788 from recombinant human GABA-Aalpha1 receptor plus beta-3-gamma-2 expressed in L(tk-) cells; assay type: cell-based
T1 sequence (P14867 whole entry): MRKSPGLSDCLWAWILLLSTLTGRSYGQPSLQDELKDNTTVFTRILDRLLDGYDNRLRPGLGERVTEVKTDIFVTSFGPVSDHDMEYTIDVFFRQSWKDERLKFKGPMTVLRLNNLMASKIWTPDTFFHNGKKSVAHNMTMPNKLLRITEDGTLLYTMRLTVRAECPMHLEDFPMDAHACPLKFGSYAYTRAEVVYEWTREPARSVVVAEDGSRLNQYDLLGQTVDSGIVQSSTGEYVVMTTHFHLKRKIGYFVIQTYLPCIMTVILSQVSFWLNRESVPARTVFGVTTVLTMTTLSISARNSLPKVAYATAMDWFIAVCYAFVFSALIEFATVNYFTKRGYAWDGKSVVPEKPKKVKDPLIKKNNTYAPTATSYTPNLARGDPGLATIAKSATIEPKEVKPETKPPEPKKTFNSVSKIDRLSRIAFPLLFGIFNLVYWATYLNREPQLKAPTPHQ
T1 sequence (P18507 whole entry): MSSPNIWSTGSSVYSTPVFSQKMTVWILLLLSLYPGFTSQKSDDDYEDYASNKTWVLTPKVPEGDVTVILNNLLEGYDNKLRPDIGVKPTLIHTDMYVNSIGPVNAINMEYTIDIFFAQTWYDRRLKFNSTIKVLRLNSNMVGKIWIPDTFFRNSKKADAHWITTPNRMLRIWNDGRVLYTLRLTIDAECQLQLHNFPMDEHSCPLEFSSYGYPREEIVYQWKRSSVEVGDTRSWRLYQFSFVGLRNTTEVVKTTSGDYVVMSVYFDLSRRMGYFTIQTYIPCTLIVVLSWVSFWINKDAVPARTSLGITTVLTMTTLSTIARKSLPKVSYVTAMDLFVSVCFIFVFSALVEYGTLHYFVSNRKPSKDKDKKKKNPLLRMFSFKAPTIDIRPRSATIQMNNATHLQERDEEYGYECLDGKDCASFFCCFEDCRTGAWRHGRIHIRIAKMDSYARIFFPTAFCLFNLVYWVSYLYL
T1 sequence (P28472 whole entry): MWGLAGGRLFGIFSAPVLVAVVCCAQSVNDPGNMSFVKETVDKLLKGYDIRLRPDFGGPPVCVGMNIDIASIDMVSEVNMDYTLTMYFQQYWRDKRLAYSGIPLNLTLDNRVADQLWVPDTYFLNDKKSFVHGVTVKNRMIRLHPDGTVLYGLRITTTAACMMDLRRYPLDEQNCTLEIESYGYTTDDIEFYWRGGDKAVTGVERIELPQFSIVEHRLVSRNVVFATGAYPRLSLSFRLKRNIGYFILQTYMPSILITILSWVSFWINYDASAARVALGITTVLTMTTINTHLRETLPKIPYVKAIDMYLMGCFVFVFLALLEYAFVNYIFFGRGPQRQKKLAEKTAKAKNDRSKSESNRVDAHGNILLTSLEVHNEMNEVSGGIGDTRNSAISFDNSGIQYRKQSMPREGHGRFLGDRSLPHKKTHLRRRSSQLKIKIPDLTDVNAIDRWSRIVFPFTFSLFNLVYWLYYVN

[2] = Metabolism in dog liver microsomes at 1 uM
[3] = biological target: GABA-A receptor; alpha-5/beta-3/gamma-2 (Homo sapiens) (UniProt P18507+P28472+P31644); assay: Displacement of [3H]Ro 15-1788 from recombinant human GABA-Aalpha5 receptor plus beta3gamma2 expressed in L(tk-) cells; assay type: cell-based
[4] = biological target: T2, GABA-A receptor; alpha-3/beta-3/gamma-2 (Homo sapiens) (UniProt P18507+P28472+P34903); assay: Efficacy against recombinant human GABA-Aalpha3 receptor plus beta-3-gamma-2 as measured by modulation of chloride ion flux; assay type: functional
[5] = biological target: T2, GABA-A receptor; alpha-3/beta-3/gamma-2 (Homo sapiens); assay: Efficacy against recombinant human GABA-Aalpha3 receptor plus beta-3-gamma-2 expressed in L(tk-) cells by whole cell patch clamp method; assay type: functional, cell-based
[6] = biological target: T3, GABA-A receptor; alpha-3/beta-3/gamma-2 (Homo sapiens, UniProt P18507+P28472+P34903); assay: Displacement of [3H]Ro 15-1788 from recombinant human GABA-Aalpha3 receptor plus beta-3-gamma-2 expressed in L(tk-) cells; assay type: cell-based
T3 sequence (P18507 whole entry): T1 sequence (P18507 whole entry)
T3 sequence (P28472 whole entry): T1 sequence (P28472 whole entry)
T3 sequence (P34903 whole entry): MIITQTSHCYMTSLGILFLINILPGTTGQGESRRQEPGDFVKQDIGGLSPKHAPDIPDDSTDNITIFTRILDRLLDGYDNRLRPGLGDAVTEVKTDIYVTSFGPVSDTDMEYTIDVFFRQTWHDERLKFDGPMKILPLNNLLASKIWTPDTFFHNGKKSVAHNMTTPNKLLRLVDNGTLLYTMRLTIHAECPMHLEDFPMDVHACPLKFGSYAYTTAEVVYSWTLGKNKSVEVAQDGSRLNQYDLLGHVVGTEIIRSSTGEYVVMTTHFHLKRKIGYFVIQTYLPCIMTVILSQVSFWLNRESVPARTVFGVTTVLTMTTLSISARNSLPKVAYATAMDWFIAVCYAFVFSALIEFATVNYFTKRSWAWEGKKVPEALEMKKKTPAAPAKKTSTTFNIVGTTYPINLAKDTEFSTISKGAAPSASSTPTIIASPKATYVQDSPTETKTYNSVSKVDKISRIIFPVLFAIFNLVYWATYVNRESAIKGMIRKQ

[7] = biological target: T4, GABA-A receptor; alpha-1/beta-3/gamma-2 (Homo sapiens) (UniProt P14867+P18507+P28472); assay: Efficacy against recombinant human GABA-Aalpha1 receptor plus beta-3-gamma-2 expressed in L(tk-) cells by whole cell patch clamp method; assay type: functional, cell-based
[8] = biological target: T4, GABA-A receptor; alpha-1/beta-3/gamma-2 (Homo sapiens); assay: Efficacy against recombinant human GABA-Aalpha1 receptor plus beta-3-gamma-2 as measured by modulation of chloride ion flux; assay type: functional
Mus musculus = assay: Proconvulsant activity in Swiss Webster mice at 10 mg/kg, ip by pentylenetetrazole assay; assay type: ADME, organism-based; design: dose 10 mg/kg, route intraperitoneal; conditions: in vivo
Plasma = assay: Receptor occupancy in plasma of rat at 1 mg/kg, po; assay type: functional
[9] = biological target: GABA-A receptor; anion channel (Rattus norvegicus) (UniProt O09028+P15431+P18506+P18508+P19969+P20236+P23574+P23576+P28471+P28473+P30191+P62813+P63079+P63138+Q91ZM7+Q9ES14); assay: Receptor occupancy in vivo by displacement of [3H]Ro 15-1788 binding from GABA-A receptor in rat at 1 mg/kg, po; assay type: functional, organism-based; design: dose 1 mg/kg
[10] = Rat brain to plasma ratio at 1 mg/kg, po; assay type: ADME, organism-based; design: dose 1 mg/kg, route oral; conditions: brain and plasma
Homo sapiens = species: Homo sapiens; assay: Stability in human liver microsomes; assay type: ADME, Microsome
Canis familiaris = species: Canis familiaris; assay: Stability in dog liver microsomes; assay type: ADME, Canis lupus familiaris, Microsome

| Structure (SMILES) | Ki [1] | Efficacy [4] | Efficacy [5] | Ki [6] | Efficacy [8] | other results |
| --- | --- | --- | --- | --- | --- | --- |
| N#Cc1ccccc1-c1cc(-c2cnc3nc(C(F)(F)F)ccn23)ccn1 | 2.5 nM | 43% | 45% | 2.9 nM | 4% | metabolized at 1 µM [2]: 4%; Activity [3]: Active; Efficacy [7]: 15% |
| N#Cc1ccccc1-c1ccnc(-c2cnc3nc(C(F)(F)F)ccn23)c1 | > 33 nM |  |  | > 33 nM |  |  |
| N#Cc1ccccc1-c1cccc(-c2cnc3nc(C(F)(F)F)ccn23)n1 | 0.36 nM | 10% | -22% | 0.46 nM | -8% | metabolized at 1 µM [2]: 15%; Activity [3]: Active |
| Fc1cccc(-c2cc(-c3cnc4nc(C(F)(F)F)ccn34)ccn2)c1 | > 33 nM |  |  | > 33 nM |  |  |
| Fc1ccccc1-c1cc(-c2cnc3nc(C(F)(F)F)ccn23)ccn1 | 8.3 nM | 23% |  | 14 nM | 6% |  |
| FC(F)(F)c1ccn2c(-c3cc(Cl)ncn3)cnc2n1 | > 33 nM |  |  | > 33 nM |  |  |
| N#Cc1ccccc1-c1cncc(-c2cnc3nc(C(F)(F)F)ccn23)c1 | 18 nM | -39% |  | > 33 nM | -55% |  |
| FC(F)(F)c1ccn2c(-c3cc(Cl)ccn3)cnc2n1 | > 33 nM |  |  | > 33 nM |  |  |
| FC(F)(F)c1ccn2c(-c3ccccn3)cnc2n1 | 9.1 nM | -7% |  | 11 nM | -40% |  |
| FC(F)(F)c1cccc(-c2cnc3nc(C(F)(F)F)ccn23)n1 | 0.31 nM | -40% |  | 0.88 nM | -24% |  |
| COc1cc(-c2cnc3nc(C(F)(F)F)ccn23)ccn1 | 29 nM |  |  | > 33 nM |  |  |
| COc1cccc(-c2cnc3nc(C(F)(F)F)ccn23)n1 | 1.2 nM | -9% | -51.6% | 1.7 nM | -22% | Efficacy [7]: -41.4% |
| FC(F)(F)c1ccn2c(-c3ccnc(Cl)n3)cnc2n1 | 0.93 nM | -19% | -24.9% | 2 nM | -22% | Activity (Mus musculus): Inverse agonist |
| COc1ccccc1-c1cc(-c2cnc3nc(C(F)(F)F)ccn23)ccn1 | 5.8 nM | 54% |  | 6.1 nM | 35% |  |
| N#Cc1ccccc1-c1ccnc(-c2cnc3nc(C(F)(F)F)ccn23)n1 | > 33 nM |  |  | > 33 nM |  |  |
| N#Cc1cc(F)ccc1-c1cc(-c2cnc3nc(C(F)(F)F)ccn23)ccn1 | 0.99 nM | 21% | 22% | 2.2 nM | 9% | Activity (Plasma): 0.15 µM; Activity [9]: 50%; Kp [10]: 0.73; Stability (Homo sapiens): < 5%; Efficacy [7]: 0%; Stability (Canis familiaris): < 5% |
| N#Cc1ccccc1-c1nccc(-c2cnc3nc(C(F)(F)F)ccn23)n1 | 1 nM | -15% |  | 1.4 nM | -29% | metabolized at 1 µM [2]: 56%; Activity [3]: Active |
| FC(F)(F)c1ccn2c(-c3cccc(Br)n3)cnc2n1 | 0.31 nM | 2% |  | 0.68 nM | 11% |  |
| CCO/N=C(\C)c1ccc2c(c1)ncn2-c1cccc(-c2cccnc2)c1 | 1.9 nM |  |  | 13 nM |  |  |
| N#Cc1ccccc1-c1cccc(-c2cnc3nc(C(F)(F)F)ccn23)c1 |  | 53% | 59% |  | 10% | metabolized at 1 µM [2]: 100%; Efficacy [7]: 19% |
